Laboratory results as given in US10654852B2, “Antibiotics and methods of using same” (THE BROAD INSTITUTE, INC., priority 2016, dated 2020).
≈ marks a conversion by molar mass, not a printed value.

Tested on: Escherichia coli ATC-25922
Assay: MIC, broth microdilution
Assay type: cell-based
Settings: ATC25922
From the text: As used herein, the term “MIC” refers to minimum inhibitory concentrations. Minimum inhibitory concentrations may be determined by broth microdilution according to the Clinical and Laboratory Standards Institute guidelines (see, e.g., […]-A8. Methods for dilution antimicrobial susceptibility tests for bacteria that grow aerobically: approved standard, 8th Ed.; […] One example for measuring minimum inhibitory concentrations may be found in Reck et al., 2012, J. Med. Chem. 55:6916-6933, the disclosure of which is incorporated by reference. Inoculants may be incubated on blood agar plates for 18 to 24 hours. Incubation may occur at a temperature from about 35° C. to about 37° C. […] In serum supplemented experiments, the testing medium (e.g., DMSO solution) and human serum may be mixed. The ratio of testing medium to human serum may be 1:1 (vol:vol). Plates may be read by spectrophotometry at 620 nm. Unless indicated otherwise, all inhibitory concentrations recited in the specification relate to MICs. The MIC tests were based on broth microdilution method in CLSI-M7. […] Solutions of varying concentrations of DMSO were prepared in wells of a v-bottom 96-well plate (Axygen-WIPP02280). A multi-pipette was used to perform serial dilutions as necessary. From well to well, the drug concentrations were 6.4, 3.2, 1.6, 0.8, 0.4, 0.2, 0.1, 0.05, 0.025, 0.0125, 0.00625 and 0 mg/ml in DMSO. For extremely potent antibiotic, the starting concentrations were adjusted accordingly. This was the drug mother plate. Daughter plates were prepared by placing 98 μl of a testing medium into each well of a u-bottom 96-well plate (Costar 3788). An aliquot of each 2 μl solution from each well of the mother plate was then transferred into the corresponding wells of the daughter plate using a multi-pipette work station (CyBi®-SELMA). Testing media were selected based on CLSI-M7, M11 and […]. Cation adjusted Mueller Hinton Broth (CA-MHB-212322) was the testing medium for majority of bacterial species. […] The MIC values were determined and based on the standards of CLSI methods M7-A7, broth microdilution method. […]

`CN1CC2CN(C(=O)Nc3cc(F)cc(F)c3)CC(C1)C2(O)c1ccc(-c2ccc(CN)cc2C#N)cn1` [Compound 24, (1R,5S,9r)-9-(5-(4-(aminomethyl)-2-cyanophenyl)pyridin-2-yl)-N-(3,5-difluorophenyl)-9-hydroxy-7-methyl-3,7-diazabicyclo[3.3.1]nonane-3-carboxamide] was tested, and the MIC was 2 µg/mL (≈ 3.86 µM).

For `CN1CC2CN(C(=O)Nc3cc(F)cc(F)c3)CC(C1)C2(O)c1ccc(-c2ccc(CN)cc2C#N)cc1` [Compound 23, (1R,5S,9r)-9-(4′-(aminomethyl)-2′-cyano-[1,1′-biphenyl]-4-yl)-N-(3,5-difluorophenyl)-9-hydroxy-7-methyl-3,7-diazabicyclo[3.3.1]nonane-3-carboxamide], the MIC was 2 µg/mL (≈ 3.86 µM).

`CNCc1ccc(-c2ccc(C3(O)C4CN(C)CC3CN(C(=O)Nc3cc(F)cc(F)c3)C4)nc2)c(C#N)c1` [Compound 17, (1R,5S,9r)-9-(5-(2-cyano-4-((methylamino)methyl)phenyl)pyridin-2-yl)-N-(3,5-difluorophenyl)-9-hydroxy-7-methyl-3,7-diazabicyclo[3.3.1]nonane-3-carboxamide] showed an MIC of 4 µg/mL (≈ 7.51 µM).
